Reference: ChEMBL document CHEMBL5034032, “Discovery and Structure-Based Optimization of Fragments Binding the Mixed Lineage Kinase Domain-like Protein Executioner Domain” (J Med Chem, 2021)
pKd: −log10 of the molar value.

Tests used:
[1] = biological target: T1, Mixed lineage kinase domain-like protein (Homo sapiens, UniProt Q8NB16); assay: Binding affinity to MLKL N-terminal executioner domain (2 to 154 residues)(unknown origin) assessed as dissociation constant by TROSY-HSQC NMR titration analysis
T1 sequence (Q8NB16 whole entry): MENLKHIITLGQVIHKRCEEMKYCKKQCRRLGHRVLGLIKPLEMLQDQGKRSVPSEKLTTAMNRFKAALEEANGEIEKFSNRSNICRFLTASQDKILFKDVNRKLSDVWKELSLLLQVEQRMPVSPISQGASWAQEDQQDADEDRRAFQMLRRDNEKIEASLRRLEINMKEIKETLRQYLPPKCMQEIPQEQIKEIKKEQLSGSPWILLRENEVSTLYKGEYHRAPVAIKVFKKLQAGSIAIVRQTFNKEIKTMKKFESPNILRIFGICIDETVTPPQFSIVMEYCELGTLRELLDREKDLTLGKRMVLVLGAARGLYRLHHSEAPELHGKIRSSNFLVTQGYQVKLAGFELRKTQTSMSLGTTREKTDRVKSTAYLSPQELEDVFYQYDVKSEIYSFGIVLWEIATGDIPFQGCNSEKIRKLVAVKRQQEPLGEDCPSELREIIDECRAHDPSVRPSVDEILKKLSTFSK

[2] = Permeability of compound by PAMPA assay; assay type: ADME; conditions: read-out: permeability

Compound	pKd [1]	Papp [2]
COCCOCn1c(S(C)(=O)=O)nc2c1c(=O)n(C)c(=O)n2C	4.14	
CO[C@@H](c1ccc(C(C)C)cc1)c1nc2ccc(C(=O)O)cc2[nH]1		0.031 ×10⁻⁶ cm/s
CCCCCCCCCO[C@@H]1O[C@H](CO)[C@@H](O[C@H]2O[C@H](CO)[C@@H](O)[C@H](O)[C@H]2O)[C@H](O)[C@H]1O	2.26	
